Results: PMC5379642, “Mechanistic Investigations of the Mitochondrial Complex I Inhibitor Rotenone in the Context of Pharmacological and Safety Evaluation” (Scientific Reports, 2017)

Biological target: T1, complex I (NADH ubiquinone reductase) (Rattus norvegicus, UniProt A6K8N6+P03889+Q641Y2)
T1 construct: gene Ndufs2; native multi-subunit complex in mitochondria isolated from frozen rat liver; with NADH dehydrogenase [ubiquinone] flavoprotein 1, mitochondrial; NADH dehydrogenase [ubiquinone] flavoprotein 2, mitochondrial; NADH-ubiquinone oxidoreductase 75 kDa subunit, mitochondrial; NADH dehydrogenase [ubiquinone] iron-sulfur protein 3, mitochondrial; NADH dehydrogenase [ubiquinone] iron-sulfur protein 8, mitochondrial; NADH-ubiquinone oxidoreductase chain 2; NADH-ubiquinone oxidoreductase chain 3; NADH-ubiquinone oxidoreductase chain 4; NADH-ubiquinone oxidoreductase chain 4L; NADH-ubiquinone oxidoreductase chain 5; NADH-ubiquinone oxidoreductase chain 6
T1 sequence (Q641Y2 34-463): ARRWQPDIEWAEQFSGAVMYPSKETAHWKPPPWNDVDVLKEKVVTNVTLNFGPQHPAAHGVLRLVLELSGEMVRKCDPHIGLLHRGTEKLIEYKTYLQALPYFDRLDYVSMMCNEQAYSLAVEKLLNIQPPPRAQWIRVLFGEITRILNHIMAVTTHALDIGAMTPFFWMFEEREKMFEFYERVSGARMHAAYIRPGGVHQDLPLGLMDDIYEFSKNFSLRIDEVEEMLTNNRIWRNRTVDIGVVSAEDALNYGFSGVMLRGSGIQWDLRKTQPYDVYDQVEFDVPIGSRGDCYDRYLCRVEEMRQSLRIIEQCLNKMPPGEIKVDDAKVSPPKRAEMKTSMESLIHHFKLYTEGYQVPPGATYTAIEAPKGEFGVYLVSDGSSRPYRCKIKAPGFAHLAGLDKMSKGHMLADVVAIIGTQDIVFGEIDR
T1 sequence (A6K8N6 39-218): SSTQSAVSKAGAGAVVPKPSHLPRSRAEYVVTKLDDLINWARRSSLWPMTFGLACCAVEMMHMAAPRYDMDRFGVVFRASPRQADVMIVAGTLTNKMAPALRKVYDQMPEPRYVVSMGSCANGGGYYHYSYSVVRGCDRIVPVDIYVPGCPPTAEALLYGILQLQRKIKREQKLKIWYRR
T1 sequence (P03889 whole entry): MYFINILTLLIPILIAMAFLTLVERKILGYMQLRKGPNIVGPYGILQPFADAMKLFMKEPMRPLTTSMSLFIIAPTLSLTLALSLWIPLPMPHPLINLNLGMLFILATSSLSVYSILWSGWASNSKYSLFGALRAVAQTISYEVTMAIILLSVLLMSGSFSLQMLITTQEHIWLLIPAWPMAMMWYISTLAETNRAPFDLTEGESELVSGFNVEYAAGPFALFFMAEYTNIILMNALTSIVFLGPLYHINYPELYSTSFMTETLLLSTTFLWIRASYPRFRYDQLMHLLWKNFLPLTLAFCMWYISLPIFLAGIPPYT
T1 sequence (Q5XIH3 21-464 partner): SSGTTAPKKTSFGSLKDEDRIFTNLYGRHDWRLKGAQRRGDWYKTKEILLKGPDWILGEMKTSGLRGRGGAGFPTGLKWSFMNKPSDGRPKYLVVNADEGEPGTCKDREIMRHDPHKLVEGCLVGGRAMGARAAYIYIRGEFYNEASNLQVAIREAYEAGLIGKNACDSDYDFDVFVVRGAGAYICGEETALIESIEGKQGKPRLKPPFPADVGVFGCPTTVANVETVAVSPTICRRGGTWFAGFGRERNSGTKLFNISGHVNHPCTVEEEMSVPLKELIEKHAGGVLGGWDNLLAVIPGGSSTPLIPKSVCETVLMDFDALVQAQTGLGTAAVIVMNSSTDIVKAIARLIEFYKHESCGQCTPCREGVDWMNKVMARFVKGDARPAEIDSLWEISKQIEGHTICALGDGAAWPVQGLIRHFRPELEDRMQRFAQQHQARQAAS
Assay: NADH oxidation at […] nm, rotenone-sensitive rate, mitochondria from dosed rats
Details: ex vivo after 400 ppm dietary rotenone for 1, 3 or 14 days, no in vitro dose, decylubiquinone, pH 7.2, KCN and antimycin present

C=C(C)[C@H]1Cc2c(ccc3c2O[C@@H]2COc4cc(OC)c(OC)cc4[C@@H]2C3=O)O1 [rotenone]
% decrease of complex I activity vs time-matched control: 70–80%
